We go through ten molecules from patent publication US20260014146A1, “CDK2 INHIBITORS AND METHODS OF USING THE SAME” (Cedilla Therapeutics, Inc., priority 2022, published 2026).

One experiment concerns the target CDK2/Cyclin E1 (Homo sapiens (Human), UniProt P24941). Nature of the experiment: ADP-Glo Luminescent Kinase Assay, ADPGLO (CDK2/E1-37C). It is filed as biochemical. Conditions: 0.18 nM CDK2/Cyclin E1, 100 μM ATP, 1.5 μM Histone H1, 37° C.; read-out: Pharmaron ADPGLO (CDK2/E1-37C): IC50. The method, then: Inhibition of CDK2/Cyclin E1 activity by the presence of small molecules was evaluated using ADP-Glo Luminescent Kinase Assay (Promega). Activated CDK2/Cyclin E1 was incubated with its substrate Histone H1 (SignalChem H10-54N) in the kinase reaction buffer (100 μM ATP, 50 mM HEPES pH 7.5, 10 mM MgCl2, 1 mM EDTA, 2 mM DTT, 0.01% Brij35, 0.5 mg/mL BSA). Luminescence was recorded with an Envision plate reader (PerkinElmer).
Dose titrations of inhibitors in 100% DMSO were combined with 0.36 nM CDK2/Cyclin E1 in reaction buffer. The mixtures were incubated for 60 minutes at 37° C. before the addition of ATP and Histone H1 substrate to initiate the kinase reaction. The final conditions were 0.18 nM CDK2/Cyclin E1, 100 μM ATP, and 1.5 μM Histone H1. The reactions were incubated at 37° C. for 90 minutes before being stopped with the addition of ADP-Glo reagent. This mixture was incubated at room temperature for 60 minutes before Kinase Detection Solution is added to generate luminescence. The stopped reactions were analyzed on an Envision plate reader. The conversion ratios were normalized to yield % activity, plotted against compound concentration, and fit to a four-parameter equation to determine the IC50 for each compound.

Experiment [1] deals with Kuramochi cells labeled with mApple-H2B. In words: IncuCyte cell proliferation assay. It is filed as cell-based. Conditions: Kuramochi RB-WT, cell count 0 to 72 hours; method calls it GI50. An outline of the steps: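 mApple-H2B-labelled Kuramochi cells were treated with compound (10-point, half-log dilutions, 20 μM top) and fluorescent nuclei counted by imaging at 0 and 72 h. Fold change in count was normalized to DMSO wells and fitted to dose-response curves to give GI50.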

On to `C[C@@H](OCC12CCC(CC1)OC2)[C@H](NC(=O)[C@@H]1CN(c2cc(F)cc3nccnc23)CC12CN(C(=O)C1(C(F)(F)F)CC1)C2)C(=O)N1CCC(c2nccs2)CC1` [Compound I-44, (S)-N-((2S,3R)-3-(2-oxabicyclo[2.2.2]octan-4-ylmethoxy)-1-oxo-1-(4-(thiazol-2-yl)piperidin-1-yl)butan-2-yl)-6-(7-fluoroquinoxalin-5-yl)-2-(1-(trifluoromethyl)cyclopropanecarbonyl)-2,6-diazaspiro[3.4]octane-8-carboxamide], for which the IC50 is 0.5 to 5 µM on CDK2/Cyclin E1 and above 20 µM in experiment [1].

Regarding `C[C@@H](OCC12CCC(CC1)OC2)[C@H](NC(=O)[C@@H]1CN(c2cccc3nc(O)cnc23)CC12CN(C(=O)C1(C(F)(F)F)CC1)C2)C(=O)N1CCC(c2nccs2)CC1` [Compound I-45, (S)-N-((2S,3R)-3-((2-oxabicyclo[2.2.2]octan-4-yl)methoxy)-1-oxo-1-(4-(thiazol-2-yl)piperidin-1-yl)butan-2-yl)-6-(2-hydroxyquinoxalin-5-yl)-2-(1-(trifluoromethyl)cyclopropane-1-carbonyl)-2,6-diazaspiro[3.4]octane-8-carboxamide], the IC50 at CDK2/Cyclin E1 is above 10 µM; in experiment [1], above 20 µM.

As for `C[C@@H](OCC12CCC(CC1)OC2)[C@H](NC(=O)[C@@H]1CN(c2cc(F)cc3ncsc23)CC12CN(C(=O)C1(C(F)(F)F)CC1)C2)C(=O)N1CCC2(CC1)COC2` [Compound I-46, (S)-N-((2S,3R)-3-(2-oxabicyclo[2.2.2]octan-4-ylmethoxy)-1-oxo-1-(2-oxa-7-azaspiro[3.5]nonan-7-yl)butan-2-yl)-6-(5-fluorobenzo[d]thiazol-7-yl)-2-(1-(trifluoromethyl)cyclopropanecarbonyl)-2,6-diazaspiro[3.4]octane-8-carboxamide], the IC50 at CDK2/Cyclin E1 is above 10 µM; in experiment [1] it was above 20 µM.

`C[C@@H](OCC12CCC(CC1)OC2)[C@@H](COC1CCC(c2ccc(C(=O)O)cc2)CC1)NC(=O)[C@@H]1CN(c2cc(F)cc3ncsc23)CC12CN(C(=O)C1(C(F)(F)F)CC1)C2` (stereo partly drawn) [Compound I-47, 4-(4-((2R,3R)-3-((2-oxabicyclo[2.2.2]octan-4-yl)methoxy)-2-((S)-6-(5-fluorobenzo[d]thiazol-7-yl)-2-(1-(trifluoromethyl)cyclopropane-1-carbonyl)-2,6-diazaspiro[3.4]octane-8-carboxamido)butoxy)cyclohexyl)benzoic acid]: the IC50 is above 10 µM on CDK2/Cyclin E1 and 5 to 20 µM in experiment [1].

On to `C[C@@H](OCC12CCC(CC1)OC2)[C@H](NC(=O)[C@@H]1CN(c2cc(F)cc3ncsc23)CC12CN(C(=O)C1(C(F)(F)F)CC1)C2)C(=O)N1CCC(c2nccs2)CC1` [Compound I-48, (S)-N-((2S,3R)-3-((2-oxabicyclo[2.2.2]octan-4-yl)methoxy)-1-oxo-1-(4-(thiazol-2-yl)piperidin-1-yl)butan-2-yl)-6-(5-fluorobenzo[d]thiazol-7-yl)-2-(1-(trifluoromethyl)cyclopropane-1-carbonyl)-2,6-diazaspiro[3.4]octane-8-carboxamide], for which the IC50 (on CDK2/Cyclin E1; in experiment [1]) was 0.5 to 5 µM each time.

With `C[C@@H](OCC12CCC(CC1)OC2)[C@@H](COc1ccccc1C(=O)O)NC(=O)[C@@H]1CN(c2cc(F)cc3ncsc23)CC12CN(C(=O)C1(C(F)(F)F)CC1)C2` [Compound I-49, 2-((2R,3R)-3-((2-oxabicyclo[2.2.2]octan-4-yl)methoxy)-2-((S)-6-(5-fluorobenzo[d]thiazol-7-yl)-2-(1-(trifluoromethyl)cyclopropane-1-carbonyl)-2,6-diazaspiro[3.4]octane-8-carboxamido)butoxy)benzoic acid], the IC50 on CDK2/Cyclin E1 was above 10 µM; in experiment [1] it was above 20 µM.

On to `COc1ccc(S(=O)(=O)NC(=O)[C@@H](NC(=O)[C@@H]2CN(c3cc(F)cc4ncsc34)CC23CN(C(=O)C2(C(F)(F)F)CC2)C3)[C@@H](C)OCC23CCC(CC2)OC3)cc1` [Compound I-50, (S)-N-((2S,3R)-3-((2-oxabicyclo[2.2.2]octan-4-yl)methoxy)-1-((4-methoxyphenyl)sulfonamido)-1-oxobutan-2-yl)-6-(5-fluorobenzo[d]thiazol-7-yl)-2-(1-(trifluoromethyl)cyclopropane-1-carbonyl)-2,6-diazaspiro[3.4]octane-8-carboxamide], for which the IC50 was 5 to 10 µM at CDK2/Cyclin E1 and above 20 µM in experiment [1].

For `C[C@@H](OCC12CCC(CC1)OC2)[C@H](NC(=O)[C@@H]1CN(c2cc(F)cc3ncsc23)CC12CN(C(=O)C1(C(F)(F)F)CC1)C2)C(=O)NS(=O)(=O)c1ccc(F)cc1F` [Compound I-51, (S)-N-((2S,3R)-3-(2-oxabicyclo[2.2.2]octan-4-ylmethoxy)-1-(2,4-difluorophenylsulfonamido)-1-oxobutan-2-yl)-6-(5-fluorobenzo[d]thiazol-7-yl)-2-(1-(trifluoromethyl)cyclopropanecarbonyl)-2,6-diazaspiro[3.4]octane-8-carboxamide], the IC50 is 5 to 10 µM on CDK2/Cyclin E1 and above 20 µM in experiment [1].

As to `C[C@@H](OCC12CCC(CC1)OC2)[C@H](NC(=O)[C@@H]1CN(c2cc(F)cc3ncoc23)CC12CN(C(=O)C1(C(F)(F)F)CC1)C2)C(=O)N1CCC(c2nccs2)CC1` [Compound I-52, (S)-N-((2S,3R)-3-((2-oxabicyclo[2.2.2]octan-4-yl)methoxy)-1-oxo-1-(4-(thiazol-2-yl)piperidin-1-yl)butan-2-yl)-6-(5-fluorobenzo[d]oxazol-7-yl)-2-(1-(trifluoromethyl)cyclopropane-1-carbonyl)-2,6-diazaspiro[3.4]octane-8-carboxamide], the IC50 at CDK2/Cyclin E1 fell in the range of 5 to 10 µM; in experiment [1], 5 to 20 µM.

As to `C[C@@H](OCC12CCC(CC1)OC2)[C@@H](COC1CCC(c2ccccc2C(=O)O)CC1)NC(=O)[C@@H]1CN(c2cc(F)cc3ncsc23)CC12CN(C(=O)C1(C(F)(F)F)CC1)C2` (stereo partly drawn) [Compound I-53, 2-(4-((2R,3R)-3-(2-oxabicyclo[2.2.2]octan-4-ylmethoxy)-2-((S)-6-(5-fluorobenzo[d]thiazol-7-yl)-2-(1-(trifluoromethyl)cyclopropanecarbonyl)-2,6-diazaspiro[3.4]octane-8-carboxamido)butoxy)cyclohexyl)benzoic acid], the IC50 on CDK2/Cyclin E1 is above 10 µM; in experiment [1], above 20 µM.
